Measured values reported in patent publication US8685977B2, “Chemical compounds” (Pfizer Limited, priority 2010, dated 2014).

target: T1, Nav1.7 (or SCN9A) channel (Homo sapiens, UniProt Q15858); assay: Nav1.7 PatchXpress 7000 automated electrophysiology assay (HEK cells stably expressing hSCN9A); type: cell-based; conditions: voltage-clamped at V1/2 of inactivation, read-out: Nav1.7 EIC50
T1 construct: expressed in transfected cells
How it was run: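 Automated whole-cell clamp (PatchXpress) of HEK cells stably expressing hSCN9A, at 22-24 °C, in extracellular buffer at pH 7.4. Cells were held at the measured V1/2 of inactivation, then stepped to 0 mV for 20 ms. Single-concentration % inhibition gave EIC50 = concentration × (100 − %inhibition)/%inhibition, excluding <20% or >80%.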

T1 sequence (Q15858 whole entry): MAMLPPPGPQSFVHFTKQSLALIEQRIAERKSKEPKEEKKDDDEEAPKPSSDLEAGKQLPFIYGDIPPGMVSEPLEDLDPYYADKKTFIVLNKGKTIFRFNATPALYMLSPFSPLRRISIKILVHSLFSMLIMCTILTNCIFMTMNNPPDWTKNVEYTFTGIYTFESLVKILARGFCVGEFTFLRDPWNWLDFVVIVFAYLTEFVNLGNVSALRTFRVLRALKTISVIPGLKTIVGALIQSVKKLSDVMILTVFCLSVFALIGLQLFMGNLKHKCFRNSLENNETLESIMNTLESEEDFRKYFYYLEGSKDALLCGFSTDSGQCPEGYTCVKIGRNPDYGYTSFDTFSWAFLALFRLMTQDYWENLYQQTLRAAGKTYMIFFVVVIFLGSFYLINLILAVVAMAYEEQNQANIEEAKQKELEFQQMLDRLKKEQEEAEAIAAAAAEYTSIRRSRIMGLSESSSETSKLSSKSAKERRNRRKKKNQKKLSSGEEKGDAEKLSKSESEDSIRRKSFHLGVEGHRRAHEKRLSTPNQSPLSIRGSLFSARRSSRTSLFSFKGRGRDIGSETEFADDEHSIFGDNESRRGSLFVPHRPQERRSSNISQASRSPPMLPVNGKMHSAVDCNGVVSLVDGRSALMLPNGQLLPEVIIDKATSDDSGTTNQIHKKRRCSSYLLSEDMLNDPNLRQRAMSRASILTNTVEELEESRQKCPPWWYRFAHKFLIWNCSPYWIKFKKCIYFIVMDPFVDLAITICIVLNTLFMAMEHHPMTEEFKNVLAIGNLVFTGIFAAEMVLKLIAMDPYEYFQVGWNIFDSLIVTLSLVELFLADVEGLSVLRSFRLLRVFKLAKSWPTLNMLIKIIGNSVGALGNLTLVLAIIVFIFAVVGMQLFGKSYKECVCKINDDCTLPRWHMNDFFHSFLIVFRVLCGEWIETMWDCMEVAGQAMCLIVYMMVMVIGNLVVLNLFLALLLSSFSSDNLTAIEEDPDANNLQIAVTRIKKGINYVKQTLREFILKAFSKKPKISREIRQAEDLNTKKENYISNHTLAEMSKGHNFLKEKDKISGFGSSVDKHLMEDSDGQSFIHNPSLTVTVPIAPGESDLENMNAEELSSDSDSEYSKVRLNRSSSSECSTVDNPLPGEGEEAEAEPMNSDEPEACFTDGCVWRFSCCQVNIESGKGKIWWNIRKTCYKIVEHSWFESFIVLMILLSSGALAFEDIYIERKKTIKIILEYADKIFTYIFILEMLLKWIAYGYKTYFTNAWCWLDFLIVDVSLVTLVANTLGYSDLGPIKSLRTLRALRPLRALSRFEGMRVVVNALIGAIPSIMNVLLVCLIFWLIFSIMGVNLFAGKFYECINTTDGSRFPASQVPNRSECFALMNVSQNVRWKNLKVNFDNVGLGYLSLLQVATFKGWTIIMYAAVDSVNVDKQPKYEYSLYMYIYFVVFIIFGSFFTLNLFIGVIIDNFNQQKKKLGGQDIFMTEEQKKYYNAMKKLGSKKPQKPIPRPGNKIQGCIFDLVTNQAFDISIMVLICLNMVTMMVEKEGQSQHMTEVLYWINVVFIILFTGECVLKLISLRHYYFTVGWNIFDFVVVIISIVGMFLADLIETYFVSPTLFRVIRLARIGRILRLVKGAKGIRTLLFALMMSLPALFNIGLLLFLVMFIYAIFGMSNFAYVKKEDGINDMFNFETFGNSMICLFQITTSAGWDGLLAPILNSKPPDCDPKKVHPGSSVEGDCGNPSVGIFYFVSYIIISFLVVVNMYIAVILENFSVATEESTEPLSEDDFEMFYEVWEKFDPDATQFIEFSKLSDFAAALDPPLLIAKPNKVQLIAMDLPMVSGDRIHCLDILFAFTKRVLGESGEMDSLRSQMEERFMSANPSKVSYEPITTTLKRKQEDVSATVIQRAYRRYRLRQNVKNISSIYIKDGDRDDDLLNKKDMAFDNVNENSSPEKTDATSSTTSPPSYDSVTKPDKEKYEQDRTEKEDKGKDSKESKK

Going from `COc1cc(Cl)cc(Oc2cc(F)c(C(=O)NS(C)(=O)=O)cc2F)c1` [Example 144, 4-(3-chloro-5-methoxyphenoxy)-2,5-difluoro-N-(methylsulfonyl)benzamide] to `Cc1cc(Cl)cc(Oc2cc(F)c(C(=O)NS(C)(=O)=O)cc2F)c1` [Example 155, 4-(3-chloro-5-methylphenoxy)-2,5-difluoro-N-(methylsulfonyl)benzamide], the IC50 rises from 2.3 µM to 5.4 µM (2.3-fold).

Compared with `Cc1cc(Oc2cc(F)c(C(=O)NS(C)(=O)=O)cc2F)ccc1F` [Example 145, 2,5-difluoro-4-(4-fluoro-3-methylphenoxy)-N-(methylsulfonyl)benzamide], `Cc1ccc(Oc2cc(F)c(C(=O)NS(C)(=O)=O)cc2F)cc1Cl` [Example 151, 4-(3-chloro-4-methylphenoxy)-2,5-difluoro-N-(methylsulfonyl)benzamide] is 2.3-fold lower in IC50: 1.2 µM for the first, 0.52 µM for the second. The second is the more potent here.

`COc1ccc(Oc2cc(F)c(C(=O)NS(C)(=O)=O)cc2F)c(Cl)c1` [Example 146, 4-(2-chloro-4-methoxyphenoxy)-2,5-difluoro-N-(methylsulfonyl)benzamide] and `CS(=O)(=O)NC(=O)c1cc(F)c(Oc2cccc(Cl)c2F)cc1F` [Example 149, 4-(3-chloro-2-fluorophenoxy)-2,5-difluoro-N-(methylsulfonyl)benzamide] cannot be ordered by IC50: over 3 µM for the first, over 1 µM for the second.

`CCc1cccc(Oc2cc(F)c(C(=O)NS(C)(=O)=O)cc2F)c1` [Example 147, 4-(3-ethylphenoxy)-2,5-difluoro-N-(methylsulfonyl)benzamide] and `Cc1cccc(Oc2cc(F)c(C(=O)NS(C)(=O)=O)cc2F)c1` [Example 157, 2,5-difluoro-4-(3-methylphenoxy)-N-(methylsulfonyl)benzamide] cannot be ordered by IC50: over 3 µM for the first, 6.8 µM for the second.

`CCOc1cc(C)ccc1Oc1cc(F)c(C(=O)NS(C)(=O)=O)cc1F` [Example 148, 4-(2-ethoxy-4-methylphenoxy)-2,5-difluoro-N-(methylsulfonyl)benzamide] and `Cc1cc(F)ccc1Oc1cc(F)c(C(=O)NS(C)(=O)=O)cc1F` [Example 154, 2,5-difluoro-4-(4-fluoro-2-methylphenoxy)-N-(methylsulfonyl)benzamide] cannot be ordered by IC50: over 1 µM for the first, over 3 µM for the second.

First: CS(=O)(=O)NC(=O)c1cc(F)c(Oc2cccc(Cl)c2)cc1F [Example 156, 4-(3-chlorophenoxy)-2,5-difluoro-N-(methylsulfonyl)benzamide]
Second: CC(C)c1cccc(Oc2cc(F)c(C(=O)NS(C)(=O)=O)cc2F)c1 [Example 158, 2,5-difluoro-4-(3-isopropylphenoxy)-N-(methylsulfonyl)benzamide]
The IC50 of the first is higher: over 3 µM for the first, 0.84 µM for the second. The second is the more potent here.

`COc1cccc(Oc2ccc(C(=O)NS(C)(=O)=O)cc2)c1` [Example 161, 4-(3-methoxyphenoxy)-N-(methylsulfonyl)benzamide] and `COc1ccc(Oc2ccc(C(=O)NS(C)(=O)=O)cc2)cc1` [Example 186, 4-(4-methoxyphenoxy)-N-(methylsulfonyl)benzamide] are within 1.5-fold of each other in IC50: 28 µM for the first, 34 µM for the second.

Compared with `Cc1ccc(C)c(Oc2ccc(C(=O)NS(C)(=O)=O)cc2)c1` [Example 162, 4-(2,5-dimethylphenoxy)-N-(methylsulfonyl)benzamide], `Cc1ccc(Oc2ccc(C(=O)NS(C)(=O)=O)cc2)c(C)c1` [Example 172, 4-(2,4-dimethylphenoxy)-N-(methylsulfonyl)benzamide] is 1.8-fold lower in IC50: 28 µM for the first, 16 µM for the second. The second is the more potent here.

Going from `CS(=O)(=O)NC(=O)c1ccc(Oc2cccc(C(F)(F)F)c2)cc1` [Example 163, N-(methylsulfonyl)-4-[3-(trifluoromethyl)phenoxy]benzamide] to `CC(C)c1cccc(Oc2ccc(C(=O)NS(C)(=O)=O)cc2)c1` [Example 181, 4-(3-isopropylphenoxy)-N-(methylsulfonyl)benzamide], the IC50 falls from 12 µM to 1.6 µM (7.5-fold). The second is the more potent here.

`CS(=O)(=O)NC(=O)c1ccc(Oc2ccccc2Cl)cc1` [Example 164, 4-(2-chlorophenoxy)-N-(methylsulfonyl)benzamide] and `CS(=O)(=O)NC(=O)c1ccc(Oc2ccccc2F)cc1` [Example 171, 4-(2-fluorophenoxy)-N-(methylsulfonyl)benzamide] cannot be ordered by IC50: over 10 µM for the first, over 10 µM for the second.

`CS(=O)(=O)NC(=O)c1ccc(Oc2cc(F)ccc2F)cc1` [Example 166, 4-(2,5-difluorophenoxy)-N-(methylsulfonyl)benzamide] and `Cc1ccc(F)cc1Oc1ccc(C(=O)NS(C)(=O)=O)cc1` [Example 179, 4-(5-fluoro-2-methylphenoxy)-N-(methylsulfonyl)benzamide] cannot be ordered by IC50: 17 µM for the first, over 10 µM for the second.

Compared with `Cc1ccc(Oc2ccc(C(=O)NS(C)(=O)=O)cc2)cc1C` [Example 167, 4-(3,4-dimethylphenoxy)-N-(methylsulfonyl)benzamide], `Cc1cc(Oc2ccc(C(=O)NS(C)(=O)=O)cc2)ccc1Cl` [Example 170, 4-(4-chloro-3-methylphenoxy)-N-(methylsulfonyl)benzamide] is 6.3-fold lower in IC50: 12 µM for the first, 1.9 µM for the second.

`CS(=O)(=O)NC(=O)c1ccc(Oc2ccc(OC(F)(F)F)cc2)cc1` [Example 168, N-(methylsulfonyl)-4-[4-(trifluoromethoxy)phenoxy]benzamide] and `CC(C)c1ccc(Oc2ccc(C(=O)NS(C)(=O)=O)cc2)cc1` [Example 173, 4-(4-isopropylphenoxy)-N-(methylsulfonyl)benzamide] are within 1.5-fold of each other in IC50: 1.6 µM for the first, 1.2 µM for the second.

`CC(C)c1ccccc1Oc1ccc(C(=O)NS(C)(=O)=O)cc1` [Example 169, 4-(2-isopropylphenoxy)-N-(methylsulfonyl)benzamide] and `Cc1ccccc1Oc1ccc(C(=O)NS(C)(=O)=O)cc1` [Example 191, 4-(2-methylphenoxy)-N-(methylsulfonyl)benzamide] cannot be ordered by IC50: 21 µM for the first, over 10 µM for the second.

`Cc1cc(C)cc(Oc2ccc(C(=O)NS(C)(=O)=O)cc2)c1` [Example 174, 4-(3,5-dimethylphenoxy)-N-(methylsulfonyl)benzamide] and `CS(=O)(=O)NC(=O)c1ccc(Oc2cc(F)cc(F)c2)cc1` [Example 192, 4-(3,5-difluorophenoxy)-N-(methylsulfonyl)benzamide] are within 1.5-fold of each other in IC50: 20 µM for the first, 14 µM for the second.

`COc1cc(Cl)ccc1Oc1ccc(C(=O)NS(C)(=O)=O)cc1` [Example 175, 4-(4-chloro-2-methoxyphenoxy)-N-(methylsulfonyl)benzamide] and `COc1cc(C)ccc1Oc1ccc(C(=O)NS(C)(=O)=O)cc1` [Example 189, 4-(2-methoxy-4-methylphenoxy)-N-(methylsulfonyl)benzamide] cannot be ordered by IC50: over 10 µM for the first, over 10 µM for the second.

Compared with `CS(=O)(=O)NC(=O)c1ccc(Oc2ccccc2OCc2ccccc2)cc1` [Example 176, 4-[2-(benzyloxy)phenoxy]-N-(methylsulfonyl)benzamide], `CS(=O)(=O)NC(=O)c1ccc(Oc2ccc(OCc3ccccc3)cc2)cc1` [Example 178, 4-[4-(benzyloxy)phenoxy]-N-(methylsulfonyl)benzamide] is lower in IC50: over 10 µM for the first, 1.3 µM for the second.

Going from `Cc1ccc(Cl)cc1Oc1ccc(C(=O)NS(C)(=O)=O)cc1` [Example 177, 4-(5-chloro-2-methylphenoxy)-N-(methylsulfonyl)benzamide] to `Cc1ccc(Cl)c(Oc2ccc(C(=O)NS(C)(=O)=O)cc2)c1` [Example 180, 4-(2-chloro-5-methylphenoxy)-N-(methylsulfonyl)benzamide], the IC50 rises from 16 µM to 32 µM (2-fold).

`CS(=O)(=O)NC(=O)c1ccc(Oc2ccc(Cl)c(Cl)c2)cc1` [Example 182, 4-(3,4-dichlorophenoxy)-N-(methylsulfonyl)benzamide] and `Cc1ccc(Oc2ccc(C(=O)NS(C)(=O)=O)cc2)cc1Cl` [Example 198, 4-(3-chloro-4-methylphenoxy)-N-(methylsulfonyl)benzamide] are the same in IC50: 1.4 µM for the first, 1.4 µM for the second.

`COc1ccc(Oc2ccc(C(=O)NS(C)(=O)=O)cc2)c(Cl)c1` [Example 183, 4-(2-chloro-4-methoxyphenoxy)-N-(methylsulfonyl)benzamide] and `COc1ccc(Cl)c(Oc2ccc(C(=O)NS(C)(=O)=O)cc2)c1` [Example 194, 4-(2-chloro-5-methoxyphenoxy)-N-(methylsulfonyl)benzamide] cannot be ordered by IC50: over 10 µM for the first, over 10 µM for the second.

`Cc1cccc(Oc2ccc(C(=O)NS(C)(=O)=O)cc2)c1C` [Example 184, 4-(2,3-dimethylphenoxy)-N-(methylsulfonyl)benzamide] and `Cc1cccc(C)c1Oc1ccc(C(=O)NS(C)(=O)=O)cc1` [Example 193, 4-(2,6-dimethylphenoxy)-N-(methylsulfonyl)benzamide] cannot be ordered by IC50: 24 µM for the first, over 10 µM for the second.

`COc1ccc(C)cc1Oc1ccc(C(=O)NS(C)(=O)=O)cc1` [Example 185, 4-(2-methoxy-5-methylphenoxy)-N-(methylsulfonyl)benzamide] and `COc1ccc(F)cc1Oc1ccc(C(=O)NS(C)(=O)=O)cc1` [Example 188, 4-(5-fluoro-2-methoxyphenoxy)-N-(methylsulfonyl)benzamide] cannot be ordered by IC50: 21 µM for the first, over 10 µM for the second.

`CS(=O)(=O)NC(=O)c1ccc(Oc2cccc(F)c2F)cc1` [Example 195, 4-(2,3-difluorophenoxy)-N-(methylsulfonyl)benzamide] and `Cc1cc(F)ccc1Oc1ccc(C(=O)NS(C)(=O)=O)cc1` [Example 201, 4-(4-fluoro-2-methylphenoxy)-N-(methylsulfonyl)benzamide] are within 1.5-fold of each other in IC50: 22 µM for the first, 20 µM for the second.

`COc1ccc(Oc2ccc(C(=O)NS(C)(=O)=O)cc2)c(F)c1F` [Example 196, 4-(2,3-difluoro-4-methoxyphenoxy)-N-(methylsulfonyl)benzamide] and `Cc1cc(Oc2ccc(C(=O)NS(C)(=O)=O)cc2)ccc1F` [Example 199, 4-(4-fluoro-3-methylphenoxy)-N-(methylsulfonyl)benzamide] are within 1.5-fold of each other in IC50: 11 µM for the first, 7.6 µM for the second.

Going from `Cn1ccc(-c2ccccc2Oc2ccc(C(=O)NS(C)(=O)=O)cc2)n1` [Example 197, 4-[2-(1-methyl-1H-pyrazol-3-yl)phenoxy]-N-(methylsulfonyl)benzamide] to `CS(=O)(=O)NC(=O)c1ccc(Oc2ccc(F)c(Cl)c2)cc1` [Example 200, 4-(3-chloro-4-fluorophenoxy)-N-(methylsulfonyl)benzamide], the IC50 falls from over 10 µM to 8.1 µM.
